How the values were obtained:
Assay in all cases: relative viability (nuclei count vs DMSO), 5 days (fraction); higher = more cells survive
Seliciclib + Bortezomib = compound: CC[C@H](CO)Nc1nc(NCc2ccccc2)c2ncn(C(C)C)c2n1 [Seliciclib] + CC(C)C[C@H](NC(=O)[C@H](Cc1ccccc1)NC(=O)c1cnccn1)B(O)O [Bortezomib] (partner 0.002 µM)
How it was run: (§1)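 Medians of duplicate plates are given as relative viability. That measure is the nuclei count in treated wells divided by the count in vehicle wells. Counts were taken on 4× images of lung cancer cell lines in 1536-well plates, 5 days after pin-tool dosing the day after seeding with one drug alone or a fixed anchor-drug dose plus five library-drug doses (not always all listed) in √10 steps.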

Seliciclib + Lapatinib = compound: CC[C@H](CO)Nc1nc(NCc2ccccc2)c2ncn(C(C)C)c2n1 [Seliciclib] + CS(=O)(=O)CCNCc1ccc(-c2ccc3ncnc(Nc4ccc(OCc5cccc(F)c5)c(Cl)c4)c3c2)o1 [Lapatinib] (partner 2 µM)
How it was run: as §1

Seliciclib + AZD7762 = compound: CC[C@H](CO)Nc1nc(NCc2ccccc2)c2ncn(C(C)C)c2n1 [Seliciclib] + NC(=O)Nc1cc(-c2cccc(F)c2)sc1C(=O)N[C@H]1CCCNC1 [AZD7762] (partner 0.2 µM)
How it was run: as §1

Seliciclib + Decitabine = compound: CC[C@H](CO)Nc1nc(NCc2ccccc2)c2ncn(C(C)C)c2n1 [Seliciclib] + Nc1ncn([C@H]2C[C@H](O)[C@@H](CO)O2)c(=O)n1 [Decitabine] (partner 2 µM)
How it was run: as §1

Cell Line | relative viability (Seliciclib + Bortezomib; first compound 0.08 µM) | relative viability (Seliciclib + Bortezomib; first compound 0.253 µM) | relative viability (Seliciclib + Bortezomib; first compound 0.8 µM) | relative viability (Seliciclib + Bortezomib; first compound 2.53 µM) | relative viability (Seliciclib + Bortezomib; first compound 8 µM) | relative viability (Seliciclib + Lapatinib; first compound 0.08 µM) | relative viability (Seliciclib + Lapatinib; first compound 0.253 µM) | relative viability (Seliciclib + Lapatinib; first compound 0.8 µM) | relative viability (Seliciclib + Lapatinib; first compound 2.53 µM) | relative viability (Seliciclib + Lapatinib; first compound 8 µM) | relative viability (Seliciclib + AZD7762; first compound 0.08 µM) | relative viability (Seliciclib + AZD7762; first compound 0.253 µM) | relative viability (Seliciclib + AZD7762; first compound 0.8 µM) | relative viability (Seliciclib + AZD7762; first compound 2.53 µM) | relative viability (Seliciclib + AZD7762; first compound 8 µM) | relative viability (Seliciclib + Decitabine; first compound 0.08 µM) | relative viability (Seliciclib + Decitabine; first compound 0.253 µM) | relative viability (Seliciclib + Decitabine; first compound 0.8 µM) | relative viability (Seliciclib + Decitabine; first compound 2.53 µM) | relative viability (Seliciclib + Decitabine; first compound 8 µM)
201T | 1.12 | 1.18 | 1.07 | 1.1 | 1.01 | 1.08 | 1.07 | 1 | 0.952 | 0.843 | 0.578 | 0.534 | 0.69 | 0.622 | 0.734 | 0.827 | 0.893 | 0.857 | 0.806 | 0.728
A-427 | 0.975 | 0.944 | 1.04 | 0.925 | 0.916 | 1.03 | 1.08 | 1.13 | 1.02 | 1.01 | 0.763 | 0.912 | 0.853 | 1.13 | 0.998 | 0.606 | 0.521 | 0.612 | 0.52 | 0.589
ABC-1 | 0.318 | 0.312 | 0.296 | 0.274 | 0.339 | 1.18 | 1.06 | 1.19 | 1.17 | 0.894 | 0.944 | 0.764 | 0.782 | 0.719 | 0.637 | 1.11 | 1.18 | 1.17 | – | 0.6
BEN | 0.871 | – | 0.82 | 0.701 | 0.659 | 0.826 | 0.525 | 0.772 | 0.677 | 0.629 | 0.808 | 0.584 | 0.694 | 0.672 | 0.61 | 0.738 | 0.739 | 0.761 | 0.698 | 0.622
CAL-12T | 0.936 | 1.36 | 0.888 | 0.785 | 0.567 | 0.619 | 0.793 | 0.551 | 0.67 | 0.276 | 0.509 | 0.772 | 0.71 | 0.707 | 0.729 | – | – | – | – | –
ChaGo-K-1 | 0.914 | 0.517 | 0.947 | 0.83 | 0.454 | – | – | – | – | – | 0.875 | 0.511 | 0.895 | 0.918 | 0.892 | 0.519 | 0.472 | 0.509 | 0.516 | 0.475
EKVX | 1.03 | 1.07 | 0.985 | 0.854 | 0.861 | 0.197 | 0.473 | 0.18 | 0.166 | 0.216 | 0.767 | 0.767 | 0.791 | 0.642 | 0.711 | 0.299 | 0.224 | 0.366 | 0.184 | 0.377
EMC-BAC-2 | 1.05 | 0.91 | 1.11 | 0.836 | 1.07 | 0.891 | 0.847 | 0.953 | 0.666 | 0.781 | 1.2 | 1.21 | 1.25 | 0.794 | 0.946 | 0.918 | 1.01 | 1 | 0.753 | 0.856
EPLC-272H | 0.872 | 0.676 | 0.991 | 1.03 | 0.907 | 0.814 | 0.861 | 0.805 | 0.913 | 0.847 | 0.203 | 0.17 | 0.208 | 0.329 | 0.347 | 0.373 | 0.432 | 0.336 | 0.395 | 0.342
